This assay has as its system HR-positive, HER2-negative, advanced breast cancer. The assay can be described thus: MONALEESA-2: PFS subgroup analysis by 2-gene signature (CDKN2A and E2F3) score. Type of assay: in vivo, human. The note with it: for Events: PFS events, median cut-off, both arms plus letrozole; for HR Across ARMCD: PFS, ribociclib arm vs PBO arm, both plus letrozole. On the procedure: The patient population consisted of postmenopausal women with HR-positive, HER2-negative, advanced breast cancer, who had previously received no prior therapy for their advanced breast cancer.
Arm A: Ribociclib (600 mg once daily, days 1-21 of a 28-day cycle)+letrozole (2.5 mg once daily, days 1-28 of a 28-day cycle).
Arm B: Placebo (once daily, days 1-21 of a 28-day cycle)+letrozole (2.5 mg once daily days 1-28 of a 28-day cycle continuously).
PFS was defined as the time from the date of randomization to the date of first documented disease progression or death due to any cause. Discontinuation for non-RECIST progression was not counted as a PFS event. If a patient started other anti-neoplastic therapy or had two or more missing tumour assessments, PFS was censored at the last adequate tumour assessment, regardless of subsequent events.
A Cox Proportional Hazards model was fitted with treatment, liver/lung metastasis which is the study stratification factor, effects of the 16 genes, including CCNA2, CCND1, CCND2, CCND3, CCNE1, CDK2, CDK4, CDK6, CDKN1A, CDKN2A, CDKN2B, CDKN2C, E2F1, E2F3, RB1, and TFDP1, and gene by treatment interactions. […] A set of genes (CDKN2A and E2F3) with significant gene by treatment interactions in the model were identified through backward model selection. Signature scores of all samples were computed as the weighted sum of the gene expression values, where weights were the regression coefficients of respective gene by treatment interactions in the Cox Proportional Hazards model. Patients were classified into high and low subgroups using median signature score as the cut-off. Median PFS and hazard ratio together with 95% confidence intervals were computed for each patient subgroup.
Result: Using backward model selection, a 2-gene signature (CDKN2A and E2F3) was derived. FIG. 1Q and table 4 are subgroup analysis results, high- and low-gene signature expression groups are defined by median signature score as cut-off.

For Ribociclib, the Events turned out to be 30 (high 2-gene signature (CDKN2A and E2F3) score); 28 (low 2-gene signature (CDKN2A and E2F3) score). The “HR Across ARMCD” value is given as 0.73 (0.46-1.16) (high 2-gene signature score) and 0.42 (0.26-0.66) (low 2-gene signature score).

Source of the values: patent US20230160016A1, “METHODS OF SELECTING A TREATMENT FOR CANCER PATIENTS” (NOVARTIS AG, priority 2017, published 2023).
